Laboratory results as given in paper PMC7915275, “Mycobacterial and Human Ferrous Nitrobindins: Spectroscopic and Reactivity Properties” (International Journal of Molecular Sciences, 2021).
≈ marks a conversion by molar mass, not a printed value. Read-outs that look alike come from different tables or passages of the source.

Key:
At-Nb(II) [1] = molecular target: T1, At-Nb(II) (Arabidopsis thaliana, UniProt O64527); test: O2 dissociation from At-Nb(II)-O2 by oxygen pulse experiments; assay type: binding; details: At-Nb(II)-O2, pH 7.0, 25.0 °C
T1 construct: made in house
T1 sequence (O64527 whole entry): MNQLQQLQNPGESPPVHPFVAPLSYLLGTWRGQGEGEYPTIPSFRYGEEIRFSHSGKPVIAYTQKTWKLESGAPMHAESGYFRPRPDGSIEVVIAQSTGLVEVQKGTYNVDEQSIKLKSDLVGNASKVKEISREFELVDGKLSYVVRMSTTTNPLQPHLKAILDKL
Method: (§1) Kinetics of O2 dissociation from the transient Mt-Nb(II)-O2, At-Nb(II)-O2 and Hs-Nb(II)-O2 species were investigated spectrophotometrically at pH 7.0 (1.0 × 10^−1 M phosphate buffer) and 25.0 °C by oxygen pulse experiments. This type of reaction proceeds according to Scheme 6.
(§2) The deoxygenation of Mt-Nb(II)-O2 and Hs-Nb(II)-O2 process was followed at 431 nm. Kinetics of Mt-Nb(II)-O2 and Hs-Nb(II)-O2 deoxygenation were analyzed according to Equation (1).
(§3) Rapid-mixing experiments were carried out employing an SX18.MV stopped-flow apparatus (Applied Photophysics, Salisbury, UK) equipped with a diode array for spectra acquisition over a 1 ms time range; the light path of the observation chamber was 10 mm.

Hs-Nb(II) [2] = molecular target: T2, Hs-Nb(II) (Homo sapiens, UniProt Q8WY91); test: O2 dissociation from Hs-Nb(II)-O2 by oxygen pulse experiments; assay type: binding; details: Hs-Nb(II)-O2, pH 7.0, 25.0 °C
T2 construct: Homo sapiens Nb (Hs-Nb) is the C-terminal domain of the THAP4 protein; made in house
T2 sequence (Q8WY91 415-577 limits assumed): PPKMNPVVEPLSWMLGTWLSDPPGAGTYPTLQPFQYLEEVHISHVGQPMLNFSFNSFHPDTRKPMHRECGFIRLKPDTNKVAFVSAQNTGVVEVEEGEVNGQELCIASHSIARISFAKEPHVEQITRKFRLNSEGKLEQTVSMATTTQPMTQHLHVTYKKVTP
Method: as §1, §2, §3

Pc-Mb(II) [3] = system: Pc-Mb(II); parameters: method as in PMID 5800433; details: pH 7.0, 20.0 °C, temperature-jump method; cited from earlier work
[4] = cited from earlier work
Mt-Nb(II) [5] = molecular target: T3, Mt-Nb(II) (Mycobacterium tuberculosis, UniProt P9WFG7); test: O2 dissociation from Mt-Nb(II)-O2 by oxygen pulse experiments; assay type: binding; parameters: made in house; details: Mt-Nb(II)-O2, pH 7.0, 25.0 °C
T3 sequence (P9WFG7 whole entry): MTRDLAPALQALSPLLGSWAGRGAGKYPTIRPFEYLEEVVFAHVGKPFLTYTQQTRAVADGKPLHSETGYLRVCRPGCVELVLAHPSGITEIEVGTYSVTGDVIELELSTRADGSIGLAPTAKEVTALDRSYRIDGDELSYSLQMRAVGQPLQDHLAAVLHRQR
Method: as §1, §2, §3

Hs-Nb(II) [6] = molecular target: T2, Hs-Nb(II); test: CO binding to and dissociation from Hs-Nb(II) by rapid-mixing stopped-flow (incl. CO displacement by NO); details: for kobs(CO): λ = 421 nm
Method: Progress kinetic curves at selected wavelengths were analyzed according to Equation (1): (1) ODobs=OD0±∑i=1i−nΔODie^(−kit) where ODobs is the observed optical density at a selected wavelength and at a given time interval, OD0 is the optical density at t = 0, n is the number of exponentials, ΔODi is the optical density change associated to the exponential i, ki is the pseudo-first-order rate constant of the exponential i (i.e., kobs(CO)) and t is the time. Since data collection occurs on a logarithmic scale, experimental points in the first second represent the absolute majority (about 70 out of 100 points) of total collected ones.
Values of the second-order rate constant for Mt-Nb(II)-CO and Hs-Nb(II)-CO formation (i.e., kon(CO)) and of the first-order rate constant for CO dissociation from Mt-Nb(II)-CO and Hs-Nb(II)-CO (i.e., koff(CO)) were obtained from the dependence of the pseudo-first-order rate constant for Mt-Nb(II) and Hs-Nb(II) carbonylation (i.e., kobs(CO)) on the ligand concentration (i.e., [CO]) according to Equation (2):kobs(CO) = kon(CO) × [CO] + koff(CO)(2)
The values of the first-order rate constant for CO dissociation from Mt-Nb(II)-CO and Hs-Nb(II)-CO (i.e., for CO replacement by NO; koff(CO)) were also determined by mixing the Mt-Nb(II)-CO and Hs-Nb(II)-CO (final concentration, 2.0 × 10^−6 M to 5.0 × 10^−6 M; [CO] = 1.0 × 10^−4 M) solutions with the NO saturated solution (final concentration, […]), under anaerobic conditions (i.e., in the presence of 2.0 × 10^−3 M sodium dithionite), at pH 7.0 (1.0 × 10^−1 M phosphate buffer), and 25.0 °C; no gaseous phase was present. Kinetics of CO dissociation from Mt-Nb(II)-CO and Hs-Nb(II)-CO was recorded at 421 nm.
The conversion of Mt-Nb(II)-CO and Hs-Nb(II)-CO to Mt-Nb(II)-NO and Hs-Nb(II)-NO, respectively, was analyzed in the framework of Scheme 2 [75]:
The values of koff(CO) were determined from data analysis, according to Equation (1). The over 100-fold excess of NO over CO guarantees that the reaction proceeds rightward because kon(NO) × [NO] >> kon(CO) × [CO] [75].
Rapid-mixing experiments were carried out employing an SX18.MV stopped-flow apparatus (Applied Photophysics, Salisbury, UK), equipped with a diode array for spectra acquisition over a 1 ms time range (the light path of the observation chamber was 10 mm) and an SFM-20/MOS-200 rapid-mixing stopped-flow apparatus (BioLogic Science Instruments, Claix, France) (the light path of the observation chamber was 10 mm).

Hs-Nb(II) [7] = molecular target: T2, Hs-Nb(II); test: CO rebinding to Hs-Nb(II) after nanosecond laser flash photolysis; assay type: binding
Method: Kinetics were analyzed according to Scheme 3.

Ec-Mb(II) [8] = test: CO binding kinetics to Ec-Mb(II) (literature); parameters: species or system Equus caballus
Pc-Mb(II) [9] = test: CO binding kinetics to Pc-Mb(II) (literature); parameters: species or system Physeter catodon
At-Nb(II) [10] = molecular target: T1, At-Nb(II); parameters: method as in PMID 19938152; details: pH 7.0, 20.0 °C, cited from earlier work
Rp-NP4(II) = molecular target: Rp-NP4(II); parameters: method as in PMID 22594621; details: pH 7.5, 20.0 °C, cited from earlier work
Rp-NP7(II) = molecular target: Rp-NP7(II); parameters: method as in PMID 22594621; details: pH 7.5, 20.0 °C, cited from earlier work
Ec-Mb(II) [11] = details: cited from earlier work
Pc-Mb(II) [12] = system: Pc-Mb(II); parameters: method as in PMID 2303446; details: pH 7.0, 20.0 °C, cited from earlier work
Mt-Nb(II) [13] = molecular target: T3, Mt-Nb(II); test: CO binding to and dissociation from Mt-Nb(II) by rapid-mixing stopped-flow (incl. CO displacement by NO); parameters: made in house
Mt-Nb(II) [14] = molecular target: T3, Mt-Nb(II); test: CO rebinding to Mt-Nb(II) after nanosecond laser flash photolysis
Text: CO rebinding kinetics to Mt-Nb(II) and Hs-Nb(II) at pH 7.4 (5.0 × 10^−2 M phosphate buffer) was obtained using the second harmonic (532 nm) of a Q-switched Nd:YAG laser (Surelite I-10, Continuum, Santa Clara, CA, USA) and the cw output of a 150 W Xe arc lamp was used as probe beam to monitor absorbance changes at 436 nm.
The CO adducts were obtained by equilibrating solutions in either 0.2 CO atm or 1.0 CO atm. The oxidation state, the molar fraction of ferrous carbonylated Nbs, and the Nb concentration were determined spectrophotometrically. Kinetics were analyzed according to Scheme 3.
According to Scheme 3, there are two types of processes, namely the formation of the A state directly from state B, which is much faster and independent on the ligand concentration (geminate recombination), whose extent φgem depends on the relative rates kBA(L) and kBC(L) according to the following relationship (3) φgem= kBA(L)/(kBA(L)+kBC(L)) and the observed rate rgem corresponds to (4) rgem= kBA(L)+ kBC(L) the formation of state A from state C (through the transient formation of state B), which depends on the ligand concentration (bimolecular recombination) and it is characterized by the second-order rate rbim corresponding to (5) rbim= kCB(L) × φgem

[15] = faster phase, Eyring plots 10.0-40.0 °C
[16] = slower phase, Eyring plots 10.0-40.0 °C

O=O [O2]
koff(O2) (At-Nb(II) [1]): 6.8 s⁻¹ | koff(O2) (Hs-Nb(II) [2]): 19 s⁻¹ | koff(O2) (Pc-Mb(II) [3]): 10 s⁻¹ | solubility in the aqueous buffered solution ([4]; p = 760 mm Hg, T = 20.0 °C, phosphate buffer pH 7.0, reference not given): 1250 µM (≈ 40 µg/mL) | koff(O2) (Mt-Nb(II) [5]): 11 s⁻¹

[C-]#[O+] [CO]
kobs(CO) (Hs-Nb(II) [6]; Hs-Nb(II), [CO] = 2.1 × 10^−4 M, pH 7.0, 25.0 °C): (2.4 ± 0.3) × 10^1 s^−1 | kobs(CO) (Hs-Nb(II) [6]; Hs-Nb(II), [CO] = 4.5 × 10^−5 M, pH 7.0, 25.0 °C): 8.3 ± 0.9 s⁻¹ | kobs(CO) (Hs-Nb(II) [6]; Hs-Nb(II), [CO] = 7.0 × 10^−5 M, pH 7.0, 25.0 °C): (1.1 ± 0.1) × 10^1 s^−1 | Kd (Hs-Nb(II) [6]; Hs-Nb(II), pH 7.0, 25.0 °C, read-out: K (=koff/kon) for CO): 38000 nM | kon(CO) (Hs-Nb(II) [6]; Hs-Nb(II), rapid-mixing, pH 7.0, 25.0 °C): 100000 M⁻¹ s⁻¹ | koff(CO) (Hs-Nb(II) [6]; Hs-Nb(II)-CO, pH 7.0, 25.0 °C): 3.8 ± 0.5 s⁻¹ | activation free energy ΔG^‡ of CO binding (Hs-Nb(II) [6]; Hs-Nb, from CO binding rate constant): 10.4 kcal/mol | rgem (CO geminate recombination rate) (Hs-Nb(II) [7]; 25 °C): 9e+07 s⁻¹ | kBA(CO) ≈ rgem × φgem (Hs-Nb(II) [7]; Equation (3)): ≈ 4.5 × 10^6 s^−1 | kBC(CO) ≈ rgem - kBA(CO) (Hs-Nb(II) [7]; escape to solvent): ≈ 8.5 × 10^7 s^−1 | ΔH1^‡ bimolecular CO binding (Hs-Nb(II) [7]; [15]): 9.08 ± 0.96 kcal/mol | ΔG1^‡ bimolecular CO binding (Hs-Nb(II) [7]; faster phase, at 20.0 °C): 8.37 ± 2.87 kcal/mol | geminate CO recombination, share of total amplitude of the rebinding process (Hs-Nb(II) [7]; laser photolysis): ~ 5% | φgem (CO geminate rebinding) (Hs-Nb(II) [7]; laser photolysis): ≤ 0.05 | ΔH2^‡ bimolecular CO binding (Hs-Nb(II) [7]; [16]): 9.08 ± 0.96 kcal/mol | ΔG2^‡ bimolecular CO binding (Hs-Nb(II) [7]; slower phase, at 20.0 °C): 10 ± 1.4 kcal/mol | activation free energy ΔG^‡ of CO binding (Ec-Mb(II) [8]): 9.37 kcal/mol | activation free energy ΔG^‡ of CO binding (Pc-Mb(II) [9]): 9.49 kcal/mol | Kd (At-Nb(II) [10]; read-out: K (=koff/kon) for CO): 220 nM | koff(CO) (At-Nb(II) [10]): 0.05 s⁻¹ | kon(CO) (At-Nb(II) [10]): 230000 M⁻¹ s⁻¹ | Kd (Rp-NP4(II); read-out: K (=koff/kon) for CO, first value (77% phase)): 0.22 nM | Kd (Rp-NP4(II); read-out: K (=koff/kon) for CO, second value (23% phase)): 0.22 nM | koff(CO), 23% phase (Rp-NP4(II)): 0.0041 s⁻¹ | koff(CO), 77% phase (Rp-NP4(II)): 0.0097 s⁻¹ | kon(CO), 23% phase (Rp-NP4(II)): 1.9e+07 M⁻¹ s⁻¹ | kon(CO), 77% phase (Rp-NP4(II)): 4.5e+07 M⁻¹ s⁻¹ | Kd (Rp-NP7(II); read-out: K (=koff/kon) for CO, first value (30% phase)): 0.088 nM | Kd (Rp-NP7(II); read-out: K (=koff/kon) for CO, second value (70% phase) (converted)): 0.015 nM | koff(CO), 30% phase (Rp-NP7(II)): 0.0044 s⁻¹ | koff(CO), 70% phase (Rp-NP7(II)): 0.00076 s⁻¹ | kon(CO) (Rp-NP7(II)): 5e+07 M⁻¹ s⁻¹ | koff(CO) (Ec-Mb(II) [11]; footnote not given): 0.035 s⁻¹ | kon(CO) (Ec-Mb(II) [11]; pH 7.0, 20.0 °C): 500000 M⁻¹ s⁻¹ | kon(CO) (Ec-Mb(II) [11]; pH 7.0, 25.0 °C): 610000 M⁻¹ s⁻¹ | Kd (Ec-Mb(II) [11]; read-out: K (=koff/kon) for CO): 57 nM | kon(CO) (Pc-Mb(II) [12]; rapid-mixing and laser photolysis): 510000 M⁻¹ s⁻¹ | Kd (Pc-Mb(II) [12]; read-out: K (=koff/kon) for CO): 37 nM | koff(CO) (Pc-Mb(II) [12]): 0.019 s⁻¹ | solubility in the aqueous buffered solution ([4]; p = 760.0 mm Hg, 20.0 °C, phosphate buffer pH 7.0): 1030 µM (≈ 28.9 µg/mL) | Kd (Mt-Nb(II) [13]; Mt-Nb(II), pH 7.0, 25.0 °C, read-out: K (=koff/kon) for CO): 63000 nM | kon(CO) (Mt-Nb(II) [13]; Mt-Nb(II), rapid-mixing, pH 7.0, 25.0 °C): 55000 M⁻¹ s⁻¹ | koff(CO) (Mt-Nb(II) [13]; Mt-Nb(II)-CO, pH 7.0, 25.0 °C): 3.5 ± 0.5 s⁻¹ | activation free energy ΔG^‡ of CO binding (Mt-Nb(II) [13]; Mt-Nb, from CO binding rate constant): 10.8 kcal/mol | ΔH1^‡ bimolecular CO binding (Mt-Nb(II) [14]; [15]): 7.65 ± 0.48 kcal/mol | ΔG1^‡ bimolecular CO binding (Mt-Nb(II) [14]; faster phase, at 20.0 °C): 10 ± 0.72 kcal/mol | φgem (CO geminate rebinding) (Mt-Nb(II) [14]; laser photolysis): ≤ 0.05 | ΔH2^‡ bimolecular CO binding (Mt-Nb(II) [14]; [16]): 8.6 ± 0.96 kcal/mol | ΔG2^‡ bimolecular CO binding (Mt-Nb(II) [14]; slower phase, at 20.0 °C): 10.5 ± 0.96 kcal/mol
